In the NIST ThermoML archive (doi:10.1021/je2004462):
± gives the expanded uncertainty stated by the source.

Key:
[1] = for mass density / viscosity: 101.33 kPa, Liquid; for surface tension liquid-gas: Pendant drop shape
[2] = refractive index (Na D-line) (dimensionless); conditions: 101.33 kPa, Liquid, Standard Abbe refractometry

CCOS(=O)(=O)[O-].CCn1cc[n+](C)c1 [1-ethyl-3-methylimidazolium ethyl sulfate]
Conditions	mass density, [1] [kg/m3]	refractive index, [2]	surface tension liquid-gas, [1] [mN/m]	viscosity, [1] [mPa·s]
293.15 K	1241.86 ± 1.3	1.47959 ± 0.00047	–	122.07 ± 6
303.15 K	1235.06 ± 1.3	1.47694 ± 0.00047	47.34 ± 0.5	75.1 ± 1.9
313.15 K	1228.28 ± 1.3	1.47429 ± 0.00047	46.67 ± 0.5	49.84 ± 0.9
323.15 K	1221.54 ± 1.2	1.47158 ± 0.00047	46.17 ± 0.49	35.34 ± 0.62
333.15 K	1214.84 ± 1.2	1.46893 ± 0.00047	45.53 ± 0.49	25.93 ± 0.45
343.15 K	1208.19 ± 1.2	1.46625 ± 0.00047	–	19.36 ± 0.34
353.15 K	1201.58 ± 1.2	1.46359 ± 0.00047	–	15.12 ± 0.26

CCn1cc[n+](C)c1.O=S(=O)([O-])C(F)(F)C(F)F
Conditions	mass density, [1] [kg/m3]	refractive index, [2]	surface tension liquid-gas, [1] [mN/m]	viscosity, [1] [mPa·s]
293.15 K	1435.84 ± 2	1.441 ± 0.00047	–	117.43 ± 5.6
303.15 K	1427.44 ± 2	1.43833 ± 0.00047	43.29 ± 0.47	72.64 ± 1.7
313.15 K	1419.04 ± 2	1.4357 ± 0.00047	42.45 ± 0.46	48.32 ± 0.87
323.15 K	1410.67 ± 2	1.43304 ± 0.00047	42.03 ± 0.45	33.94 ± 0.6
333.15 K	1402.33 ± 1.9	1.43041 ± 0.00047	41.43 ± 0.45	25.05 ± 0.44
343.15 K	1394.02 ± 1.9	1.42777 ± 0.00047	–	18.86 ± 0.33
353.15 K	1385.76 ± 1.9	1.42514 ± 0.00047	–	14.74 ± 0.26
